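Results reflect a 48-hour exposure of cells in 96-well plates to compound at five concentrations. Abbreviation: GI50, concentration required for 50% inhibition of growth.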 Calls of active or inactive are those of the source. Cut-off read from the data, not from the text of the source: active = GI50 up to about 1.1 µM and inactive = higher.
Tests used:
Assay in all cases: inhibition of tumour cell growth, NCI panel, 48 h
NCI-H522 = test system: NCI-H522
EKVX = test system: EKVX
SF-268 = test system: SF-268
OVCAR-5 = test system: OVCAR-5
K562 = test system: K562
MOLT-4 = test system: MOLT-4
Hs-578T = test system: Hs-578T
IGROV-1 = test system: IGROV-1
OVCAR-4 = test system: OVCAR-4
UO-31 = test system: UO-31
UACC-257 = test system: UACC-257
NCI-H23 = test system: NCI-H23
CCRF-CEM = test system: CCRF-CEM
A498 = test system: A498
DU-145 = test system: DU-145
NCI/ADR-RES = test system: NCI/ADR-RES
MDA-MB-231 = test system: MDA-MB-231
M14 = test system: M14
MDA-MB-435 = test system: MDA-MB-435
SNB-75 = test system: SNB-75

SMILES | GI50 (NCI-H522) | GI50 (EKVX) | GI50 (SF-268) | GI50 (OVCAR-5) | GI50 (K562) | GI50 (MOLT-4) | GI50 (Hs-578T) | GI50 (IGROV-1) | GI50 (OVCAR-4) | GI50 (UO-31) | GI50 (UACC-257) | GI50 (NCI-H23) | GI50 (CCRF-CEM) | GI50 (A498) | GI50 (DU-145) | GI50 (NCI/ADR-RES) | GI50 (MDA-MB-231) | GI50 (M14) | GI50 (MDA-MB-435) | GI50 (SNB-75)
Cc1cc2c(cc1Cl)SC(NS(=O)(=O)c1ccc(Cl)cc1)=NS2(=O)=O | 21.7 µM (inactive) | 38.4 µM (inactive) | 85.9 µM (inactive) | 35.4 µM (inactive) | 41.9 µM (inactive) | 16.9 µM (inactive) | 41.5 µM (inactive) | 89.5 µM (inactive) | 39.4 µM (inactive) | > 100 µM (inactive) | 46.8 µM (inactive) | 30.5 µM (inactive) | 56.8 µM (inactive) | 30.4 µM (inactive) | 83.9 µM (inactive) | > 100 µM (inactive) | 67.6 µM (inactive) | 82.2 µM (inactive) | 91.6 µM (inactive) | 35.2 µM (inactive)
CC(C)=CCC[C@@H](C)/C=C/C=C(\C)C(=O)CC[C@@H]1CC[N@+]2(C)CCCC[C@H]12 | 35 µM (inactive) | > 100 µM (inactive) | 71.1 µM (inactive) | 50.4 µM (inactive) | 49.9 µM (inactive) | > 100 µM (inactive) | 96.4 µM (inactive) | 55.1 µM (inactive) | > 100 µM (inactive) | > 100 µM (inactive) | > 100 µM (inactive) | > 100 µM (inactive) |  | > 100 µM (inactive) | > 100 µM (inactive) | > 100 µM (inactive) | > 100 µM (inactive) | > 100 µM (inactive) | > 100 µM (inactive) | 49.2 µM (inactive)
COc1cc2nc(-c3cccs3)nc(Cl)c2cc1OC | > 100 µM (inactive) | 18.6 µM (inactive) | > 100 µM (inactive) | > 100 µM (inactive) | 69.5 µM (inactive) |  | > 100 µM (inactive) | > 100 µM (inactive) | 52.5 µM (inactive) | > 100 µM (inactive) | 68.9 µM (inactive) | > 100 µM (inactive) |  | 19.8 µM (inactive) | > 100 µM (inactive) | > 100 µM (inactive) | > 100 µM (inactive) | > 100 µM (inactive) | > 100 µM (inactive) | > 100 µM (inactive)
Clc1ccc(C(Cc2cccc(Cl)c2)c2c(Cl)nc(N3CCNCC3)nc2Cl)cc1 (centres undefined) | 14.8 µM (inactive) | 0.128 µM (active) |  | 12.5 µM (inactive) | 12.6 µM (inactive) | 12.2 µM (inactive) | 19.8 µM (inactive) | 69.2 µM (inactive) | 16.5 µM (inactive) | 12.9 µM (inactive) | 18.8 µM (inactive) | 19 µM (inactive) | 15.3 µM (inactive) | 15.2 µM (inactive) | 19.7 µM (inactive) | 18 µM (inactive) | 13.5 µM (inactive) | 13.4 µM (inactive) | 16.7 µM (inactive) | 13.3 µM (inactive)
O=C1/C(=C/c2ccc([N+](=O)[O-])cc2)C(=O)N(c2ccccc2)C1c1ccccc1 (centres undefined) | > 10 µM (inactive) | > 10 µM (inactive) | > 10 µM (inactive) | > 10 µM (inactive) |  | > 10 µM (inactive) | > 10 µM (inactive) | > 10 µM (inactive) | > 10 µM (inactive) | > 10 µM (inactive) | > 10 µM (inactive) | > 10 µM (inactive) | > 10 µM (inactive) | > 10 µM (inactive) | > 10 µM (inactive) | > 10 µM (inactive) | > 10 µM (inactive) | > 10 µM (inactive) | > 10 µM (inactive) | > 10 µM (inactive)
Nc1nc(=O)n(C2OC(CO)C(O)C2O)c2ncc(-c3ccc(-c4ccccc4)cc3)nc12 (centres undefined) | > 100 µM (inactive) | 94.8 µM (inactive) | > 100 µM (inactive) | > 100 µM (inactive) | > 100 µM (inactive) | > 100 µM (inactive) | > 100 µM (inactive) | > 100 µM (inactive) | > 100 µM (inactive) | > 100 µM (inactive) | > 100 µM (inactive) | > 100 µM (inactive) | 9.62 µM (inactive) | > 100 µM (inactive) | > 100 µM (inactive) | > 100 µM (inactive) | 21 µM (inactive) |  | > 100 µM (inactive) | 28.4 µM (inactive)
